Experimental data taken from patent US7728028B2, “Substituted imidazoline compounds” (Gruenenthal GmbH, priority 2005, dated 2010).

Biological target: T1, human μ-opiate receptor (Homo sapiens, UniProt P35372)
T1 construct: purchased PerkinElmer Life Sciences, Zaventem, Belgium RB-HOM; host or cells: CHO-K1 cells (recombinant expression; membrane preparation)
Assay: Affinity for the human μ-opiate receptor ([3H]-naloxone displacement, SPA)
Conditions: Table 2, Examples 11-161; test substance 1 μmole/l; inhibition of specific [3H]-naloxone binding; CHO-K1 membranes; read-out: μ-Opioid receptor, % inhibition [1 μM]
In short: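 CHO-K1 membranes expressing the receptor, incubated 90 min at room temperature with 1 nmol/l [3H]-naloxone and WGA-SPA beads in 50 mmol/l Tris-HCl with 0.06% BSA. Non-specific binding defined with 100 μmol/l naloxone. Value is % inhibition of specific binding at 1 μmol/l test substance.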

T1 sequence (P35372 whole entry): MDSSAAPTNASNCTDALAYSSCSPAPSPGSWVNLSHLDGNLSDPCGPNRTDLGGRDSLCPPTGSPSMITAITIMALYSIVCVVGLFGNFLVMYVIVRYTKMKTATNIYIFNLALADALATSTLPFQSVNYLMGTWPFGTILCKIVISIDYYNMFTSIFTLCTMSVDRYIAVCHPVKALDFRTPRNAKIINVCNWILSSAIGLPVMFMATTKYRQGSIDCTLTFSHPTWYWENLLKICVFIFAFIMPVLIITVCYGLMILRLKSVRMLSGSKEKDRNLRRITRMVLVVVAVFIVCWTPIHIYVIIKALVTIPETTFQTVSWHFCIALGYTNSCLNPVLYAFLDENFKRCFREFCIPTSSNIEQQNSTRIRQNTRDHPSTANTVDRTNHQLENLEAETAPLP

Row | Compound | inhibition at 1 µM [%]
1 | CCCC1(C(=O)OC)N=CN(CCc2ccccc2)C1CC1CCC(C(c2ccc(F)cc2)N(C)C)CC1 (centres unmarked) [Example 132, 5-{4-[dimethylamino-(4-fluorophenyl)-methyl]-cyclohexylmethyl}-1-phenethyl-4-propyl-4,5-dihydro-1H-imidazole-4-carboxylic acid methyl ester] | 98
2 | COC(=O)C1(CCSC)N=CN(CCc2ccccc2)C1CC1CCC(C(c2ccc(F)cc2)N(C)C)CC1 (centres unmarked) [Example 133, 5-{4-[dimethylamino-(4-fluorophenyl)-methyl]-cyclohexylmethyl}-4-(2-methylsulfanylethyl)-1-phenethyl-4,5-dihydro-1H-imidazole-4-carboxylic acid methyl ester] | 84
3 | COC(=O)C1(C)N=CN(CCc2ccccc2)C1CC1CCC(C(c2ccc(F)cc2)N(C)C)CC1 (centres unmarked) [Example 134, 5-{4-[dimethylamino-(4-fluorophenyl)-methyl]-cyclohexylmethyl}-4-methyl-1-phenethyl-4,5-dihydro-1H-imidazole-4-carboxylic acid methyl ester] | 92
4 | CCCC1(C(=O)OC)N=CN(CCc2ccccc2)C1CC1CCC(C(CCc2ccccc2)N(C)C)CC1 (centres unmarked) [Example 135, 5-[4-(1-dimethylamino-3-phenylpropyl)-cyclohexylmethyl]-1-phenethyl-4-propyl-4,5-dihydro-1H-imidazole-4-carboxylic acid methyl ester] | 85
5 | COC(=O)C1(C)N=CN(CCc2ccccc2)C1CC1CCC(C(CCc2ccccc2)N(C)C)CC1 (centres unmarked) [Example 137, 5-[4-(1-dimethylamino-3-phenylpropyl)-cyclohexylmethyl]-4-methyl-1-phenethyl-4,5-dihydro-1H-imidazole-4-carboxylic acid methyl ester] | 61
6 | CCCC1(C(=O)OC)N=CN(Cc2ccccc2)C1CC1CCC(C(c2cccc(F)c2)N(C)C)CC1 (centres unmarked) [Example 138, 1-benzyl-5-{4-[dimethylamino-(3-fluorophenyl)-methyl]-cyclohexylmethyl}-4-propyl-4,5-dihydro-1H-imidazole-4-carboxylic acid methyl ester] | 101
7 | COC(=O)C1(CCSC)N=CN(Cc2ccccc2)C1CC1CCC(C(c2cccc(F)c2)N(C)C)CC1 (centres unmarked) [Example 139, 1-benzyl-5-{4-[dimethylamino-(3-fluorophenyl)-methyl]-cyclohexylmethyl}-4-(2-methylsulfanyl-ethyl)-4,5-dihydro-1H-imidazole-4-carboxylic acid methyl ester] | 100
8 | COC(=O)C1(C)N=CN(Cc2ccccc2)C1CC1CCC(C(c2cccc(F)c2)N(C)C)CC1 (centres unmarked) [Example 140, 1-benzyl-5-{4-[dimethylamino-(3-fluorophenyl)-methyl]-cyclohexylmethyl}-4-methyl-4,5-dihydro-1H-imidazole-4-carboxylic acid methyl ester] | 98
9 | CCCC1(C(=O)OC)N=CN(Cc2ccccc2)C1CC1CCC(C(c2ccc(F)cc2)N(C)C)CC1 (centres unmarked) [Example 141, 1-benzyl-5-{4-[dimethylamino-(4-fluorophenyl)-methyl]-cyclohexylmethyl}-4-propyl-4,5-dihydro-1H-imidazole-4-carboxylic acid methyl ester] | 98
10 | COC(=O)C1(CCSC)N=CN(Cc2ccccc2)C1CC1CCC(C(c2ccc(F)cc2)N(C)C)CC1 (centres unmarked) [Example 142, 1-benzyl-5-{4-[dimethylamino-(4-fluorophenyl)-methyl]-cyclohexylmethyl}-4-(2-methylsulfanyl-ethyl)-4,5-dihydro-1H-imidazole-4-carboxylic acid methyl ester] | 97
11 | COC(=O)C1(C)N=CN(Cc2ccccc2)C1CC1CCC(C(c2ccc(F)cc2)N(C)C)CC1 (centres unmarked) [Example 143, 1-benzyl-5-{4-[dimethylamino-(4-fluorophenyl)-methyl]-cyclohexylmethyl}-4-methyl-4,5-dihydro-1H-imidazole-4-carboxylic acid methyl ester] | 100
12 | CCCC1(C(=O)OC)N=CN(Cc2ccccc2)C1CC1CCC(C(CCc2ccccc2)N(C)C)CC1 (centres unmarked) [Example 144, 1-benzyl-5-[4-(1-dimethylamino-3-phenylpropyl)-cyclohexylmethyl]-4-propyl-4,5-dihydro-1H-imidazole-4-carboxylic acid methyl ester] | 90
13 | COC(=O)C1(CCSC)N=CN(Cc2ccccc2)C1CC1CCC(C(CCc2ccccc2)N(C)C)CC1 (centres unmarked) [Example 145, 1-benzyl-5-[4-(1-dimethylamino-3-phenylpropyl)-cyclohexylmethyl]-4-(2-methylsulfanyl-ethyl)-4,5-dihydro-1H-imidazole-4-carboxylic acid methyl ester] | 79
14 | COC(=O)C1(C)N=CN(Cc2ccccc2)C1CC1CCC(C(CCc2ccccc2)N(C)C)CC1 (centres unmarked) [Example 146, 1-benzyl-5-[4-(1-dimethylamino-3-phenylpropyl)-cyclohexylmethyl]-4-methyl-4,5-dihydro-1H-imidazole-4-carboxylic acid methyl ester] | 79
15 | COC(=O)CCC1(C(=O)OC)N=CN(C2CCCCC2)C1CC1CCC(C(c2cccc(F)c2)N(C)C)CC1 (centres unmarked) [Example 147, 1-cyclohexyl-5-{4-[dimethylamino-(3-fluorophenyl)-methyl]-cyclohexylmethyl}-4-(2-methoxycarbonylethyl)-4,5-dihydro-1H-imidazole-4-carboxylic acid methyl ester] | 98
16 | CCC(C)C1(C(=O)OC)N=CN(C2CCCCC2)C1CC1CCC(C(c2cccc(F)c2)N(C)C)CC1 (centres unmarked) [Example 148, 4-sec-butyl-1-cyclohexyl-5-{4-[dimethylamino-(3-fluorophenyl)-methyl]-cyclohexylmethyl}-4,5-dihydro-1H-imidazole-4-carboxylic acid methyl ester] | 95
17 | COC(=O)C1(CSC)N=CN(C2CCCCC2)C1CC1CCC(C(c2cccc(F)c2)N(C)C)CC1 (centres unmarked) [Example 149, 1-cyclohexyl-5-{4-[dimethylamino-(3-fluorophenyl)-methyl]-cyclohexylmethyl}-4-methylsulfanylmethyl-4,5-dihydro-1H-imidazole-4-carboxylic acid methyl ester] | 99
18 | COC(=O)C1(CSCc2ccccc2)N=CN(C2CCCCC2)C1CC1CCC(C(c2cccc(F)c2)N(C)C)CC1 (centres unmarked) [Example 150, 4-benzylsulfanylmethyl-1-cyclohexyl-5-{4-[dimethylamino-(3-fluorophenyl)-methyl]-cyclohexylmethyl}-4,5-dihydro-1H-imidazole-4-carboxylic acid methyl ester] | 98
19 | COC(=O)CCC1(C(=O)OC)N=CN(C2CCCCC2)C1CC1CCC(C(c2ccc(F)cc2)N(C)C)CC1 (centres unmarked) [Example 151, 1-cyclohexyl-5-{4-[dimethylamino-(4-fluorophenyl)-methyl]-cyclohexylmethyl}-4-(2-methoxycarbonylethyl)-4,5-dihydro-1H-imidazole-4-carboxylic acid methyl ester] | 95
20 | CCC(C)C1(C(=O)OC)N=CN(C2CCCCC2)C1CC1CCC(C(c2ccc(F)cc2)N(C)C)CC1 (centres unmarked) [Example 152, 4-sec-butyl-1-cyclohexyl-5-{4-[dimethylamino-(4-fluorophenyl)-methyl]-cyclohexylmethyl}-4,5-dihydro-1H-imidazole-4-carboxylic acid methyl ester] | 93
